According to patent US7727960B2, “C5a receptor antagonists” (Jerini AG, priority 2003, dated 2010):
Starred links: 1 amine or outer side, 2 acyl side, 3 side chain; linkers in the order of their positions; H or OH if unused. Positions of bridges follow the written chain, without caps; N, C: chain ends. Non-standard residues stand in square brackets, D forms with d. Residues, ends and D or L forms follow the SMILES beside them. *: point of attachment. X2 = COC1O[C@H](C(=O)[*:2])[C@@H](O)[C@H](O)[C@H]1N[*:1]; Dip = N[C@H](C(=O)O)C(c1ccccc1)c1ccccc1; Phe(4-NH2) = Nc1ccc(C[C@H](N)C(=O)O)cc1; Bta = N[C@@H](Cc1csc2ccccc12)C(=O)O; Hydrocinnamoyl = O=C(CCc1ccccc1)*; 4Pal = N[C@@H](Cc1ccncc1)C(=O)O; 2Thi = N[C@@H](Cc1cccs1)C(=O)O; dCha = N[C@H](CC1CCCCC1)C(=O)O; AllylGly = C=CC[C@H](N)C(=O)O; hLeu = CC(C)CC[C@H](N)C(=O)O; Pip = O=C(O)[C@@H]1CCCCN1; Nle = CCCC[C@H](N)C(=O)O; Orn = NCCC[C@H](N)C(=O)O; Aze = O=C(O)[C@@H]1CCN1

Key:
[1] = Solubility determination for selected C5aR-antagonists; assay type: physicochemical; conditions: for Solubility in 20 mM HEPES pH 7.4: 20 mM HEPES pH 7.4, 24 h at RT; for solubility: aqueous HEPES buffer (pH 7.4)
Method: Solubility of compounds was determined by the following procedure: 20 μl of a 10 mM stock solution (in DMSO) of the compound were diluted in 980 μl of the solvent to be tested. After incubation for 24 h at RT under shaking the samples are centrifuged at 11.000 rpm in an Eppendorf centrifuge. The supematant is determined by photometry. […] Therefor the compound was suspended at 10 mg/ml in the solvent systems of choice. The undissolved part was removed by centrifugation after 24 h. The UV-absorption of the supernatant was measured and compared to a respective reference value 60% MeOH).

human C5aR (CD88) [2] = biological target: T1, human C5aR (CD88) (Homo sapiens, UniProt P21730); test: Determination of the IC50 value in an enzyme release assay (functional assay, antagonistic activity); assay type: cell-based; conditions: for IC50-value compared to compound 40 (in words): arginine replaced by hydrophobic substitutions; for inhibitory activity (in words): noteworthy = IC50 of less than 200 nM in the functional assay
T1 construct: expressed in transfected cells; host or cells: rat basophilic leukemia cells (RBL)
T1 sequence (P21730 1-350): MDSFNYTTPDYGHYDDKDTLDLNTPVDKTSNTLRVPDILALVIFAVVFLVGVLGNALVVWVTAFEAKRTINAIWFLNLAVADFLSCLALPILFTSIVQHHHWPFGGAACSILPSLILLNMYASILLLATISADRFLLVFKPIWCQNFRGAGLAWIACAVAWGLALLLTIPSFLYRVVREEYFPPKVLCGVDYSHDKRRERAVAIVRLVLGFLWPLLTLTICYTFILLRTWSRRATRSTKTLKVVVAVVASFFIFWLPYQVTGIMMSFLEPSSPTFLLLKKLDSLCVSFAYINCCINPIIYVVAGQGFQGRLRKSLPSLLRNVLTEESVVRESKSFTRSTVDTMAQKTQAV

human C5aR (CD88) [3] = biological target: T1, human C5aR (CD88); test: Determination of EC50 values in an enzyme release assay (agonistic activity, no C5a added); assay type: cell-based; conditions: for agonistic activity (in words): cellular assay, up to a concentration of at least 1430 nM
Method: The determination of the EC50 value was performed in a way similar to the procedure described in example 11, with the only exception that 30 μl of the compound to be tested were mixed with 75 μl of the cell suspension described in example 11. There was no preincubation or addition of C5a for stimulation of the enzyme release.

| Molecule | inhibitory activity (in words) (human C5aR (CD88) [2]) | agonistic activity (in words) (human C5aR (CD88) [3]) | other results |
| --- | --- | --- | --- |
| CCCC[C@@H]1NC(=O)[C@H](Cc2c[nH]c3ccccc23)NC(=O)[C@@H](CC2CCCCC2)NC(=O)[C@@H]2CCCN2C(=O)[C@@H](NC(=O)[C@H](Cc2ccccc2)NC(C)=O)CCCNC1=O [Compound 28, Ac-Phe-[Orn-Pro-cha-Trp-Nle]] (Ac-F[Orn]P[dCha]W[Nle]; lactam 2-C) | noteworthy inhibitory activity | – | Solubility in 20 mM HEPES pH 7.4 [1]: 22 % of 200 μM; solubility [1]: 22%; IC50-value compared to compound 40 (in words) (human C5aR (CD88) [2]): without a significant increase of the IC50-value |
| CC(=O)N[C@H](C(=O)N[C@@H](CCCN)C(=O)N1CCC[C@H]1C(=O)N[C@H](CC1CCCCC1)C(=O)N[C@@H](Cc1c[nH]c2ccccc12)C(=O)N[C@@H](Cc1ccccc1)C(N)=O)C(c1ccccc1)c1ccccc1 [Compound 71, Ac-Ebw-Orn-Pro-cha-Trp-Phe-NH2] (Ac-[Dip][Orn]P[dCha]WF-NH2) | – | pure antagonists | – |
| H-Phe-[Orn-Pro-cha-Trp-Phe] | – | pure antagonists | – |
| CCCC[C@@H]1NC(=O)[C@H](Cc2c[nH]c3ccccc23)NC(=O)[C@@H](CC2CCCCC2)NC(=O)[C@@H]2CCCN2C(=O)[C@@H](NC(=O)CCc2ccccc2)CCCNC1=O [Compound 41, Ph—CH2—CH2—CO-[Orn-Pro-cha-Trp-Nle]] (Hydrocinnamoyl-[Orn]P[dCha]W[Nle]; lactam 1-C) | noteworthy inhibitory activity | pure antagonists | – |
| CCCC[C@@H]1NC(=O)[C@H](Cc2c[nH]c3ccccc23)NC(=O)[C@@H](CC2CCCCC2)NC(=O)[C@@H]2CCCN2C(=O)[C@@H](NC(=O)[C@H](Cc2ccccc2)NC(=O)[C@H]2OC(OC)[C@H](NC(C)=O)[C@@H](O)[C@@H]2O)CCCNC1=O (stereo partly drawn) [Compound 4, X-Phe-[Orn-Pro-cha-Trp-Nle]; X = 2-acetamido-1-methyl-glucuronyl] (Ac-[X2]F[Orn]P[dCha]W[Nle]; lactam 3-C) | – | – | Solubility in 20 mM HEPES pH 7.4 [1]: 84 % of 200 μM; solubility [1]: 84% |
| CC(=O)N[C@@H](Cc1ccccc1)C(=O)N[C@@H](CCCNC(=N)N)C(=O)N1CCC[C@H]1C(=O)N[C@H](CC1CCCCC1)C(=O)N[C@@H](Cc1c[nH]c2ccccc12)C(=O)N[C@@H](Cc1ccccc1)C(N)=O [Compound 88, Ac-Phe-Arg-Pro-cha-Trp-Phe-NH2] (Ac-FRP[dCha]WF-NH2) | – | pure antagonists | – |
| CC(=O)N[C@@H](Cc1cccs1)C(=O)N[C@@H](CCCN)C(=O)N1CCCC[C@H]1C(=O)N[C@H](CC1CCCCC1)C(=O)N[C@@H](Cc1csc2ccccc12)C(=O)N[C@@H](Cc1ccccc1)C(N)=O [Compound 67, Ac-Thi-Orn-Pip-cha-Bta-Phe-NH2] (Ac-[2Thi][Orn][Pip][dCha][Bta]F-NH2) | – | pure antagonists | – |
| CC(=O)N[C@@H](Cc1ccccc1)C(=O)N[C@H]1CCCNC(=O)[C@H](CCCNC(=N)N)NC(=O)[C@H](Cc2c[nH]c3ccccc23)NC(=O)[C@@H](CC2CCCCC2)NC(=O)[C@@H]2CCCN2C1=O [Compound 40, Ac-Phe-[Orn-Pro-cha-Trp-Arg], reference compound] | – | – | Solubility in 20 mM HEPES pH 7.4 [1]: 94 % of 200 μM; solubility [1]: 94% |
| CC(=O)N[C@@H](Cc1ccccc1)C(=O)N[C@@H](CCCN)C(=O)N1CCC[C@H]1C(=O)N[C@H](CC1CCCCC1)C(=O)N[C@@H](Cc1csc2ccccc12)C(=O)N[C@@H](Cc1ccccc1)C(N)=O [Compound 62, Ac-Phe-Orn-Pro-cha-Bta-Phe-NH2] (Ac-F[Orn]P[dCha][Bta]F-NH2) | – | pure antagonists | – |
| CC(=O)N[C@@H](Cc1ccccc1)C(=O)N[C@@H](CCCN)C(=O)N1CCCC[C@H]1C(=O)N[C@H](CC1CCCCC1)C(=O)N[C@@H](Cc1c[nH]c2ccccc12)C(=O)N[C@@H](Cc1ccccc1)C(N)=O [Compound 55, Ac-Phe-Orn-Pip-cha-Trp-Phe-NH2] (Ac-F[Orn][Pip][dCha]WF-NH2) | – | pure antagonists | – |
| C=CC[C@@H]1NC(=O)[C@H](Cc2c[nH]c3ccccc23)NC(=O)[C@@H](CC2CCCCC2)NC(=O)[C@@H]2CCCN2C(=O)[C@@H](NC(=O)[C@H](Cc2ccccc2)NC(C)=O)CCCNC1=O [Compound 33, Ac-Phe-[Orn-Pro-cha-Trp-Eaf]] (Ac-F[Orn]P[dCha]W[AllylGly]; lactam 2-C) | noteworthy inhibitory activity | pure antagonists | IC50-value compared to compound 40 (in words) (human C5aR (CD88) [2]): without a significant increase of the IC50-value |
| CC(=O)N[C@@H](Cc1ccccc1)C(=O)N[C@@H](CCCN)C(=O)N1CC[C@H]1C(=O)N[C@H](CC1CCCCC1)C(=O)N[C@@H](Cc1c[nH]c2ccccc12)C(=O)N[C@@H](Cc1ccccc1)C(N)=O [Compound 83, Ac-Phe-Orn-Aze-cha-Trp-Phe-NH2] (Ac-F[Orn][Aze][dCha]WF-NH2) | – | pure antagonists | – |
| CC(=O)N[C@@H](Cc1ccccc1)C(=O)N[C@@H](Cc1c[nH]c2ccccc12)C(=O)N1CCC[C@H]1C(=O)N[C@H](CC1CCCCC1)C(=O)N[C@@H](Cc1c[nH]c2ccccc12)C(=O)N[C@@H](Cc1ccccc1)C(N)=O [Compound 84, Ac-Phe-Trp-Pro-cha-Trp-Phe-NH2] (Ac-FWP[dCha]WF-NH2) | – | pure antagonists | – |
| CC(=O)N[C@@H](Cc1ccccc1)C(=O)N[C@@H](CCCN)C(=O)N1CCC[C@H]1C(=O)N[C@H](CC1CCCCC1)C(=O)N[C@@H](Cc1c[nH]c2ccccc12)C(=O)N[C@@H](Cc1ccccc1)C(N)=O [Compound 51, Ac-Phe-Orn-Pro-cha-Trp-Phe-NH2] (Ac-F[Orn]P[dCha]WF-NH2) | – | pure antagonists | – |
| CC(=O)N[C@@H](Cc1ccccc1)C(=O)N[C@H]1CCCNC(=O)[C@H](CCC(C)C)NC(=O)[C@H](Cc2c[nH]c3ccccc23)NC(=O)[C@@H](CC2CCCCC2)NC(=O)[C@@H]2CCCN2C1=O [Compound 32, Ac-Phe-[Orn-Pro-cha-Trp-Hle]] (Ac-F[Orn]P[dCha]W[hLeu]; lactam 2-C) | noteworthy inhibitory activity | – | IC50-value compared to compound 40 (in words) (human C5aR (CD88) [2]): without a significant increase of the IC50-value |
| Ac-Phe-Orn-cha-cha-Bta-Phe-NH2 | – | pure antagonists | – |
| Ac-Phe-[Orn-Pro-cha-Trp-Ppa] (Ac-F[Orn]P[dCha]W[4Pal]; lactam 2-C (inferred)) | noteworthy inhibitory activity | – | – |
| CCCC[C@@H]1NC(=O)[C@H](Cc2c[nH]c3ccccc23)NC(=O)[C@@H](CC2CCCCC2)NC(=O)[C@H](CO)NC(=O)[C@@H](NC(=O)[C@@H](N)Cc2ccccc2)CCCNC1=O [Compound 44, H-Phe-[Orn-Ser-cha-Trp-Nle]] (H-F[Orn]S[dCha]W[Nle]; lactam 2-C) | – | pure antagonists | – |
| CC(=O)N[C@@H](Cc1ccccc1)C(=O)N[C@H]1CCCNC(=O)[C@H](Cc2ccc(N)cc2)NC(=O)[C@H](Cc2c[nH]c3ccccc23)NC(=O)[C@@H](CC2CCCCC2)NC(=O)[C@@H]2CCCN2C1=O [Compound 14, Ac-Phe-[Orn-Pro-cha-Trp-Paf]] (Ac-F[Orn]P[dCha]W[Phe(4-NH2)]; lactam 2-C) | noteworthy inhibitory activity | – | – |
| CC(=O)N[C@@H](Cc1ccccc1)C(=O)N[C@H]1CCCNC(=O)[C@H](Cc2cccs2)NC(=O)[C@H](Cc2c[nH]c3ccccc23)NC(=O)[C@@H](CC2CCCCC2)NC(=O)[C@@H]2CCCN2C1=O [Compound 38, Ac-Phe-[Orn-Pro-cha-Trp-Thi]] (Ac-F[Orn]P[dCha]W[2Thi]; lactam 2-C) | noteworthy inhibitory activity | – | IC50-value compared to compound 40 (in words) (human C5aR (CD88) [2]): without a significant increase of the IC50-value |
| hrC5a: hrC5a (Sigma) used for stimulation of the enzyme release; agonist control in Table 5 (protein) TLQKKIEEIAAKYKHSVVKKCCYDGACVNNDETCEQRAARISLGPRCIKAFTECCVVASQLRANISHKDMQLGR | – | – | EC50 (human C5aR (CD88) [3]; agonistic activity, no preincubation or addition of C5a): 2.4 nM |
